Laboratory results reported in ChEMBL document CHEMBL4033730, “Thiosemicarbazones as inhibitors of tyrosinase enzyme” (Bioorg Med Chem Lett, 2017).
The source made the active and inactive calls. The calls are words filed in the database; no cut-off is given here.

Assays:
[1] = tested on: NC(=S)N/N=C/c1ccc(NC(=S)N/N=C/c2ccccn2)cc1; experiment: (§1) Inhibition of Agaricus bisporus tyrosinase assessed as reduction in diphenolase activity by measuring apparent Km for L-DOPA oxidation at 1.6 mM after 30 mins by Lineweaver-Burk plot
NC(=S)N/N=C/c1ccc(Br)cc1 [2] = experiment: as §1
COc1ccc(/C=N/NC(N)=S)cc1 [3] = experiment: as §1
NC(=S)N/N=C/c1ccc(Cl)cc1 [4] = experiment: as §1
NC(=S)N/N=C/c1ccccc1 [5] = experiment: as §1
NC(=S)N/N=C/c1ccc(O)cc1 [6] = experiment: as §1
[7] = tested on: COc1cc(/C=N/NC(N)=S)ccc1O; experiment: as §1
[8] = tested on: CCOc1ccc(/C=N/NC(N)=S)cc1; experiment: as §1
[9] = tested on: NC(=S)N/N=C/c1ccc(NC(=S)N/N=C/c2ccccn2)cc1; experiment: (§2) Inhibition of Agaricus bisporus tyrosinase assessed as reduction in diphenolase activity by measuring Vmax for L-DOPA oxidation at 1.6 mM after 30 mins by Lineweaver-Burk plot
NC(=S)N/N=C/c1ccc(Br)cc1 [10] = experiment: as §2
COc1ccc(/C=N/NC(N)=S)cc1 [11] = experiment: as §2
NC(=S)N/N=C/c1ccc(Cl)cc1 [12] = experiment: as §2
NC(=S)N/N=C/c1ccccc1 [13] = experiment: as §2
NC(=S)N/N=C/c1ccc(O)cc1 [14] = experiment: as §2
[15] = tested on: COc1cc(/C=N/NC(N)=S)ccc1O; experiment: as §2
[16] = tested on: CCOc1ccc(/C=N/NC(N)=S)cc1; experiment: as §2
[17] = molecular target: T1, Mushroom tyrosinase (Agaricus bisporus) (UniProt O42713+Q00024+C7FF04+C7FF05); experiment: Inhibition of Agaricus bisporus tyrosinase assessed as reduction in diphenolase activity by measuring L-DOPA oxidation at 1.6 mM after 0 to 70 mins by UV-visible specroscopy
Mushroom tyrosinase [18] = molecular target: T2, Mushroom tyrosinase (Agaricus bisporus, UniProt O42713+Q00024+C7FF04+C7FF05); experiment: Inhibition of Agaricus bisporus tyrosinase assessed as reduction in diphenolase activity by measuring L-DOPA oxidation after 30 mins
Mushroom tyrosinase [19] = molecular target: T2, Mushroom tyrosinase; experiment: Uncompetitive inhibition of Agaricus bisporus tyrosinase assessed as reduction in diphenolase activity by measuring L-DOPA oxidation at 1.6 mM after 30 mins by Lineweaver-Burk plot
Mushroom tyrosinase [20] = molecular target: T2, Mushroom tyrosinase; experiment: Competitive inhibition of Agaricus bisporus tyrosinase assessed as reduction in diphenolase activity by measuring L-DOPA oxidation at 1.6 mM after 30 mins by Lineweaver-Burk plot
[21] = molecular target: T1, Mushroom tyrosinase (Agaricus bisporus); experiment: Inhibition of Agaricus bisporus tyrosinase assessed as reduction in diphenolase activity by measuring L-DOPA oxidation at 2.67 mM after 30 mins
[22] = molecular target: T1, Mushroom tyrosinase (Agaricus bisporus); experiment: Inhibition of Agaricus bisporus tyrosinase assessed as reduction in diphenolase activity by measuring L-DOPA oxidation at 0.44 mM after 30 mins
[23] = molecular target: T1, Mushroom tyrosinase (Agaricus bisporus); experiment: Inhibition of Agaricus bisporus tyrosinase assessed as reduction in diphenolase activity by measuring L-DOPA oxidation at 0.29 mM after 30 mins
[24] = molecular target: T1, Mushroom tyrosinase (Agaricus bisporus); experiment: Inhibition of Agaricus bisporus tyrosinase assessed as reduction in diphenolase activity by measuring L-DOPA oxidation at 1.78 mM after 30 mins
[25] = molecular target: T1, Mushroom tyrosinase (Agaricus bisporus); experiment: Inhibition of Agaricus bisporus tyrosinase assessed as reduction in diphenolase activity by measuring L-DOPA oxidation at 0.15 mM after 30 mins
[26] = molecular target: T1, Mushroom tyrosinase (Agaricus bisporus); experiment: Inhibition of Agaricus bisporus tyrosinase assessed as reduction in diphenolase activity by measuring L-DOPA oxidation at 0.89 mM after 30 mins
[27] = molecular target: T1, Mushroom tyrosinase (Agaricus bisporus); experiment: Inhibition of Agaricus bisporus tyrosinase assessed as reduction in diphenolase activity by measuring L-DOPA oxidation at 1.33 mM after 30 mins
[28] = molecular target: T1, Mushroom tyrosinase (Agaricus bisporus); experiment: Inhibition of Agaricus bisporus tyrosinase assessed as reduction in diphenolase activity by measuring L-DOPA oxidation at 2.22 mM after 30 mins
[29] = molecular target: T1, Mushroom tyrosinase (Agaricus bisporus); experiment: Competitive inhibition of Agaricus bisporus tyrosinase assessed as reduction in diphenolase activity by measuring L-DOPA oxidation at 1.6 mM after 30 mins UV-visible specroscopy
Mushroom tyrosinase [30] = molecular target: T2, Mushroom tyrosinase; experiment: […] inhibition of Agaricus bisporus tyrosinase assessed as reduction in diphenolase activity by measuring L-DOPA oxidation at 1.6 mM after 30 mins by Lineweaver-Burk plot

Mushroom tyrosinase (Agaricus bisporus) (from UniProt O42713+Q00024+C7FF04+C7FF05), sequence (C7FF05 whole entry, looked up): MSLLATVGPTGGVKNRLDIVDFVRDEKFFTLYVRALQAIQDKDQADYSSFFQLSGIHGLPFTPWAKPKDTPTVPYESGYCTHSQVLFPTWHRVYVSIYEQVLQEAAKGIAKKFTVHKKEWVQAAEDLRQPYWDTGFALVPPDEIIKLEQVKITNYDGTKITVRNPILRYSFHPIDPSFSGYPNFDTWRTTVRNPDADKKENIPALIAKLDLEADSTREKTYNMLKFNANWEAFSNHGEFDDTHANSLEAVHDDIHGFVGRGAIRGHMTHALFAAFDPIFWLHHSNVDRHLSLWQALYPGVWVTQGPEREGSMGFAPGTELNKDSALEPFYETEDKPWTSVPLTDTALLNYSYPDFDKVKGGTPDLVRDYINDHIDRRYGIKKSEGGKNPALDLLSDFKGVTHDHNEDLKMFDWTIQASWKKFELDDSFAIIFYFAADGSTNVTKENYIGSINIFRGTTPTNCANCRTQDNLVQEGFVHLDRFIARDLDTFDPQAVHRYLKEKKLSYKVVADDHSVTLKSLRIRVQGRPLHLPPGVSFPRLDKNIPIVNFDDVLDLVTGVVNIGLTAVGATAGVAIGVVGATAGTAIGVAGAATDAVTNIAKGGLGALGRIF
Mushroom tyrosinase (Agaricus bisporus) (from UniProt O42713+Q00024+C7FF04+C7FF05), sequence (C7FF04 whole entry, looked up): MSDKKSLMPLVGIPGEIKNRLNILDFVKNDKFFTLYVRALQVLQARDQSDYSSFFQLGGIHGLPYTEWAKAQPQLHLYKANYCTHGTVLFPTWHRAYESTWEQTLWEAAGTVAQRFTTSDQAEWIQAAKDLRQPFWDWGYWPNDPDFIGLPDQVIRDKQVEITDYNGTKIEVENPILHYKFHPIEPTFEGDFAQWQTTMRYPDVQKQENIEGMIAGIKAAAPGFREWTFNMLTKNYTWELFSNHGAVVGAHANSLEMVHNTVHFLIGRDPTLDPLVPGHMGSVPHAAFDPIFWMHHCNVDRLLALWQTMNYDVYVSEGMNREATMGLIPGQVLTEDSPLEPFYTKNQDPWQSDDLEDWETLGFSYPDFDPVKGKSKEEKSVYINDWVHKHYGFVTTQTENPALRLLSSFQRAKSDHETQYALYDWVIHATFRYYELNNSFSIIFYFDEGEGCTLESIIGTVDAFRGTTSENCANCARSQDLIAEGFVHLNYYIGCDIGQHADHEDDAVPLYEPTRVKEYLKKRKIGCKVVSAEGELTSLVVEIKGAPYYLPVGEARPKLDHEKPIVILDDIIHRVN
Mushroom tyrosinase (Agaricus bisporus) (from UniProt O42713+Q00024+C7FF04+C7FF05), sequence (Q00024 whole entry, looked up): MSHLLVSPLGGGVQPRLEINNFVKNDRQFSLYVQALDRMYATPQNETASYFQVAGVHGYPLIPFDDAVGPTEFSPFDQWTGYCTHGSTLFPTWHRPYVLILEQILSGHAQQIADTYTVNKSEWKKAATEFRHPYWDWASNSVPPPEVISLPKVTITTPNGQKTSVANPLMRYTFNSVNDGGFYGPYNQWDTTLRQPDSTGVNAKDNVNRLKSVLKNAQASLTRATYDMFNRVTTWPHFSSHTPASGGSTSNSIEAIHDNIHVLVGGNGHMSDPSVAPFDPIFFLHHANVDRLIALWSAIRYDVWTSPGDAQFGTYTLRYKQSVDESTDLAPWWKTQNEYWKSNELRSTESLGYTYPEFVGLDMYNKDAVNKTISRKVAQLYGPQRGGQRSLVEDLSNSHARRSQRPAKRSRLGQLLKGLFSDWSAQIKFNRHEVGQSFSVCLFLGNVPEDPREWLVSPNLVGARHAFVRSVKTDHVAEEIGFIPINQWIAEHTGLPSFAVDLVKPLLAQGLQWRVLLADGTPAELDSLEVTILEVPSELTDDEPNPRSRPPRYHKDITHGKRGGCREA
Mushroom tyrosinase (Agaricus bisporus) (from UniProt O42713+Q00024+C7FF04+C7FF05), sequence (O42713 whole entry, looked up): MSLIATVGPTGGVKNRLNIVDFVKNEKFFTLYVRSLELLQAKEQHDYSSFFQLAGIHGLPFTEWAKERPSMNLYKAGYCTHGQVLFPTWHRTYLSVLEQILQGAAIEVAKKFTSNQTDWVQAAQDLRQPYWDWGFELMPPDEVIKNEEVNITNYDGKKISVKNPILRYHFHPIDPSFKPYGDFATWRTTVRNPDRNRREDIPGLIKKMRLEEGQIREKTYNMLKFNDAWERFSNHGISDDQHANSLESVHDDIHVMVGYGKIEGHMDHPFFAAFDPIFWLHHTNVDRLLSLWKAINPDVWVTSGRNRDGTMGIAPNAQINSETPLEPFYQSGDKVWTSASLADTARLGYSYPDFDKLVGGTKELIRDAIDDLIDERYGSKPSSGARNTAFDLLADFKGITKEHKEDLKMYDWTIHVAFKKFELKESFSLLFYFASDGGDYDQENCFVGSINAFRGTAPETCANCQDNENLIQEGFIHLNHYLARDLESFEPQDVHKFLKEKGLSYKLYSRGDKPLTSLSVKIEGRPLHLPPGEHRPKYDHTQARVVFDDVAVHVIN

Mushroom tyrosinase (Agaricus bisporus) (from UniProt O42713+Q00024+C7FF04+C7FF05)
Km [1]: 8.3 mM | Km (NC(=S)N/N=C/c1ccc(Br)cc1 [2]): 0.5 mM | Km (COc1ccc(/C=N/NC(N)=S)cc1 [3]): 26.3 mM | Km (NC(=S)N/N=C/c1ccc(Cl)cc1 [4]): 1.9 mM | Km (NC(=S)N/N=C/c1ccccc1 [5]): 0.8 mM | Km (NC(=S)N/N=C/c1ccc(O)cc1 [6]): 0.7 mM | Km [7]: 22.4 mM | Km [8]: 21.7 mM | Vmax [9]: 27.1 mM/min | Vmax (NC(=S)N/N=C/c1ccc(Br)cc1 [10]): 16.6 mM/min | Vmax (COc1ccc(/C=N/NC(N)=S)cc1 [11]): 34.8 mM/min | Vmax (NC(=S)N/N=C/c1ccc(Cl)cc1 [12]): 39.7 mM/min | Vmax (NC(=S)N/N=C/c1ccccc1 [13]): 18.9 mM/min | Vmax (NC(=S)N/N=C/c1ccc(O)cc1 [14]): 9.5 mM/min | Vmax [15]: 48.1 mM/min | Vmax [16]: 38.4 mM/min

NC(=S)N/N=C/c1ccc(O)cc1
inhibition [17]: Active

NC(=S)N/N=C/c1ccc(Br)cc1
inhibition [17]: Active | IC50 (Mushroom tyrosinase [18]): 1420 µM | Ki (Mushroom tyrosinase [19]): 600 µM

COc1ccc(/C=N/NC(N)=S)cc1
Ki (Mushroom tyrosinase [20]): 50 µM | inhibition [17]: Active | IC50 (Mushroom tyrosinase [18]): 440 µM

CCOc1ccc(/C=N/NC(N)=S)cc1
Ki (Mushroom tyrosinase [20]): 60 µM | inhibition [17]: Active | IC50 (Mushroom tyrosinase [18]): 360 µM

NC(=S)N/N=C/c1ccc(NC(=S)N/N=C/c2ccccn2)cc1
Ki (Mushroom tyrosinase [20]): 200 µM | inhibition [17]: Active | IC50 (Mushroom tyrosinase [18]): 1190 µM

NC(=S)N/N=C/c1ccc(Cl)cc1
Ki (Mushroom tyrosinase [20]): 1300 µM | IC50 (Mushroom tyrosinase [18]): 840 µM

COc1cc(/C=N/NC(N)=S)ccc1O
inhibition [21]: 93.8% | inhibition [22]: 59.3% | inhibition [23]: 45.7% | Ki (Mushroom tyrosinase [20]): 60 µM | inhibition [24]: 92.8% | inhibition [17]: Active | inhibition [25]: 24% | inhibition [26]: 79.2% | inhibition [27]: 89.2% | inhibition [28]: 94.6% | inhibition [29]: Active | IC50 (Mushroom tyrosinase [18]): 350 µM

NC(=S)N/N=C/c1ccccc1 [PHENYLTHIOSEMICARBAZONE]
Ki (Mushroom tyrosinase [30]): 4500 µM | inhibition [17]: Active | IC50 (Mushroom tyrosinase [18]): 820 µM
